Results from patent US5198358A, “Microorganism for producing C-31 desmethyl FR-900520 cyclic hemiketal immunosuppressant agent” (Merck & Co., Inc., priority 1991, dated 1993).
Several values for one entry are separate records, joined by “and”; a condition that tells them apart may be missing. Equal entries are not always repeated. Entries after “also recorded” stand apart in the source; their conditions may differ. Where two headings read alike, the source gives them in different places.

Legend:
[1] = tested on: Splenic T-cells stimulated with ionomycin + PMA; assay: T-cell proliferation assay (ionomycin plus PMA induced T-cell stimulation); assay type: cell-based, mouse; conditions: for Inhibition of T-cell activation (result in words): T-cell proliferation assay
Protocol: Cells were pelleted by centrifugation at 1500 rpm for 8 minutes. Contaminating red cells were removed by treating the pellet with ammonium chloride lysing buffer (GIBCO) for 2 minutes at 4° C. Cold medium was added and cells were again centrifuged at 1500 rpm for 8 minutes. T lymphocytes were then isolated by separation of the cell suspension on nylon wool columns as follows: Nylon wool columns were prepared by packing approximately 4 grams of washed and dried nylon wool into 20 ml plastic syringes. The columns were sterilized by autoclaving at 250° F. for 30 minutes. Nylon wool columns were wetted with warm (37° C.) culture medium and rinsed with the same medium. Washed spleen cells resuspended in warm medium were slowly applied to the nylon wool. The columns were then incubated in an upright position at 37° C. for 1 hour. Non-adherent T lymphocytes were eluted from the columns with warm culture medium and the cell suspensions were spun as above.
The cell suspension was immediately distributed into 96 well flat-bottom microculture plates (Costar) at 200 μl/well. […] The proliferation of T lymphocytes was assessed by measurement of tritiated thymidine incorporation. After 44 hours of culturing, the cells were pulse-labelled with 2 μCi/well of tritiated thymidine (NEN, Cambridge, Mass.). After another 4 hours of incubation, cultures were harvested on glass fiber filters using a multiple sample harvester. Radioactivity of filter discs corresponding to individual wells was measured by standard liquid scintillation counting methods (Betacounter). Mean counts per minute of replicate wells were calculated and the results expressed as percent inhibition of tritiated thymidine uptake (proliferation) as follows: [formula]

[2] = molecular target: T1, 31-O-desmethylimmunomycin O-methyltransferase (DIMT) (Streptomyces hygroscopicus, UniProt Q9KID5); assay: S-adenosyl-L-methionine: 31-O-desmethylimmunomycin O-methyltransferase (DIMT) assay
T1 sequence (Q9KID5 1-260): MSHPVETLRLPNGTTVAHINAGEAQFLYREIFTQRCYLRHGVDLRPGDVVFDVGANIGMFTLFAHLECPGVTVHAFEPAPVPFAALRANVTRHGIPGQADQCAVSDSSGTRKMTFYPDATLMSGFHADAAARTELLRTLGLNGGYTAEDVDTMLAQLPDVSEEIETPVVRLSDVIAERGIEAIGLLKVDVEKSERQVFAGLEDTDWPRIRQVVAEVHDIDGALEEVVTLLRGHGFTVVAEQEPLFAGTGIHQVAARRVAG
Protocol: The assay was carried out in 1 ml. mixture containing 0.025 mM 31-desmethylimmunomycin, 1 mM MgSO4 and different quantities of the enzyme source in 50 mM phosphate buffer, pH 7.5. Reaction was initiated by the addition of 1 nmole of ^14 C-SAM (S-adenosyl-L-[methyl-^14 C] methionine with the specific activity of 46 mCi/mmole. Incubation of the complete mixture was carried out at 34° C. for 20 minutes and the reaction was terminated by the addition of ethyl acetate. Product of the reaction was extracted with 2 ml of ethyl acetate and 1 ml of the extract was used for TLC and HPLC analysis. For the analysis of the radioactive reaction product (immunomycin), the ethyl acetate extract was spiked with the standard immunomycin and subjected to the TLC with a plate having plastic support. The plastic sheet was developed in chloroform:methanol (9:1) and area showing standard immunomycin under UV-light was cut and the radioactivity in the cut-strip was measured. The amount of the product formed was calculated from the measured radioactivity. For the HPLC analysis of the product of the enzyme reaction, several enzymatic reaction mixtures were pooled and the extract was subjected to the TLC analysis as above. The area on the silica gel plate showing the band having an Rf value identical with the standard immunomycin was scraped and eluted with ethyl acetate. The ethyl acetate extract was washed with water, dried under nitrogen and the residue was subjected to the HPLC analysis on Partisil 5-ODS-3 column with acetonitrile:water:phosphoric acid (65:35:0.1) as the eluting solvent. One milliliter fractions were collected and a portion of each fraction was examined for the radioactivity.
Examination of the optimal temperature, pH and metal requirement of the DIMT activity was carried out on the enzyme preparation obtained from DEAE-Sepharose column. For kinetic analysis, a preparation which had been purified through a second MonoQ column chromatography was utilized.

[3] = reputed; EPO Publication No. 0184162; cited from earlier work
[4] = substrate: [H][C@@]1(/C=C(\C)[C@@]2([H])OC(=O)[C@]3([H])CCCCN3C(=O)C(=O)[C@]3(O)O[C@]([H])([C@@H](OC)C[C@@H](C)C/C(C)=C/[C@@H](CC)C(=O)C[C@H](O)[C@H]2C)[C@@H](OC)C[C@H]3C)CC[C@@H](O)[C@H](O)C1; assay: purified protein, by the assay type; conditions: other: 31-O-desmethylimmunomycin as variable substrate, 40 uM SAM; Lineweaver-Burk; pH 7.5
[5] = substrate: C[S+](CC[C@H](N)C(=O)[O-])C[C@H]1O[C@@H](n2cnc3c(N)ncnc32)[C@H](O)[C@@H]1O; assay: purified protein, by the assay type; conditions: other: SAM as variable substrate, 25 umM 31-O-desmethylimmunomycin as cosubstrate; pH 7.5
Protocol: The assay was carried out in 1 ml. mixture containing 0.025 mM 31-desmethylimmunomycin, 1 mM MgSO4 and different quantities of the enzyme source in 50 mM phosphate buffer, pH 7.5. Reaction was initiated by the addition of 1 nmole of ^14 C-SAM (S-adenosyl-L-[methyl-^14 C] methionine with the specific activity of 46 mCi/mmole. Incubation of the complete mixture was carried out at 34° C. for 20 minutes and the reaction was terminated by the addition of ethyl acetate. Product of the reaction was extracted with 2 ml of ethyl acetate and 1 ml of the extract was used for TLC and HPLC analysis. For the analysis of the radioactive reaction product (immunomycin), the ethyl acetate extract was spiked with the standard immunomycin and subjected to the TLC with a plate having plastic support. The plastic sheet was developed in chloroform:methanol (9:1) and area showing standard immunomycin under UV-light was cut and the radioactivity in the cut-strip was measured. The amount of the product formed was calculated from the measured radioactivity. For the HPLC analysis of the product of the enzyme reaction, several enzymatic reaction mixtures were pooled and the extract was subjected to the TLC analysis as above. […] One milliliter fractions were collected and a portion of each fraction was examined for the radioactivity. […]

[6] = Mus musculus, T-cell, HPLC purified samples, evaluated in the same set of experiments, read-out: IC50 (biological activity)

With `CC[C@@H]1C=C2COC1(O)C[C@H](O)[C@@H](C)[C@@H](/C(C)=C/[C@@H]1CC[C@@H](O)[C@H](O)C1)OC(=O)[C@@H]1CCCCN1C(=O)C(=O)[C@]1(O)O[C@H]([C@@H](OC)C[C@@H](C)C2)[C@@H](OC)C[C@H]1C` [Compound I] the inhibition at 0.0025 µM ([1]; Mus musculus, T-cell, 2.5 nM, tritiated thymidine uptake, harvest at 48 hours, read-out: Percent of Inhibition) was 0%, the inhibition at 0.0049 µM ([1]; Mus musculus, T-cell, 4.9 nM, tritiated thymidine uptake, harvest at 48 hours, read-out: Percent of Inhibition) was 0% and the inhibition at 0.0099 µM ([1]; Mus musculus, T-cell, 9.9 nM, tritiated thymidine uptake, harvest at 48 hours, read-out: Percent of Inhibition) was 39%. The inhibition at 0.0197 µM ([1]; Mus musculus, T-cell, 19.7 nM, tritiated thymidine uptake, harvest at 48 hours, read-out: Percent of Inhibition) was 65%, the inhibition at 0.0394 µM ([1]; Mus musculus, T-cell, 39.4 nM, tritiated thymidine uptake, harvest at 48 hours, read-out: Percent of Inhibition) was 89% and the inhibition at 0.0788 µM ([1]; Mus musculus, T-cell, 78.8 nM, tritiated thymidine uptake, harvest at 48 hours, read-out: Percent of Inhibition) was 95%. It also gave an inhibition at 0.1576 µM ([1]; Mus musculus, T-cell, 157.6 nM, tritiated thymidine uptake, harvest at 48 hours, read-out: Percent of Inhibition) of 98%, an inhibition at 0.3152 µM ([1]; Mus musculus, T-cell, 315.2 nM, tritiated thymidine uptake, harvest at 48 hours, read-out: Percent of Inhibition) of 98% and an IC50 [1, 6] of about 11 nM. For the same molecule, the IC50 ([1]; Mus musculus, T-cell proliferation, Example 4, read-out: IC50) was 0.0115 µg/mL and 14.5 nM, the “Inhibition of T-cell activation (result in words)” value [1] was “positive inhibition of T-cell activation; also recorded: antagonist activity versus the FK-506 immunosuppressive activity” and the “Effect of IL2 on inhibition of T-cell proliferation” value ([1]; addition of 50 units/ml of recombinant IL2 at the initiation of culture) was “reversed”.

Molecule `CC[C@@H]1/C=C(\C)C[C@H](C)C[C@H](OC)[C@H]2O[C@@](O)(C(=O)C(=O)N3CCCC[C@H]3C(=O)O[C@H](/C(C)=C/[C@@H]3CC[C@@H](O)[C@H](OC)C3)[C@H](C)[C@@H](O)CC1=O)[C@H](C)C[C@@H]2OC` [FR-900520, 17-Ethyl-1,14-dihydroxy-12-[2-(4-hydroxy-3-methoxycyclohexyl)-1-methylvinyl]-23-25-dimethoxy-13,19,21,27-tetramethyl-11,28-dioxa-4-azatricyclo [22.3.1.0^4,9]octacos-18-ene-2,3,10,16-tetraone] has an IC50 [1, 6] of about 1 nM.

In the case of `Nc1ncnc2c1ncn2[C@@H]1O[C@H](C[C@@H](N)CC[C@H](N)C(=O)O)[C@@H](O)[C@H]1O` [sinefungin], the “Inhibition of DIMT activity” value [2] is reported as “major inhibition”.

For `C=CC[C@@H]1/C=C(\C)C[C@H](C)C[C@H](OC)[C@H]2O[C@@](O)(C(=O)C(=O)N3CCCC[C@H]3C(=O)O[C@H](/C(C)=C/[C@@H]3CC[C@@H](O)[C@H](OC)C3)[C@H](C)[C@@H](O)CC1=O)[C@H](C)C[C@@H]2OC` [FR900506, reference compound], the inhibition at 0.01 µg/mL ([1]; Mus musculus, T-cell, 10 ng/ml, standard) is listed as 99% and the “Effectiveness relative to cyclosporin” value [3] is listed as 100 times.

With `CC[C@@H]1/C=C(\C)C[C@H](C)C[C@H](OC)[C@H]2O[C@@](O)(C(=O)C(=O)N3CCCC[C@H]3C(=O)O[C@H](/C(C)=C/[C@@H]3CC[C@@H](O)[C@H](O)C3)[C@H](C)[C@@H](O)CC1=O)[C@H](C)C[C@@H]2OC` [31-O-desmethylimmunomycin] the “apparent Vmax” value ([2]; 31-O-desmethylimmunomycin as variable substrate, 40 uM SAM, Lineweaver-Burk) was 45.5 nmol/h/mg.

With `Nc1ncnc2c1ncn2[C@@H]1O[C@H](CSCC[C@H](N)C(=O)O)[C@@H](O)[C@H]1O` [S-adenosyl-homocysteine (SAH), S-adenosyl-homocysteine] the “Inhibition of DIMT activity” value [2] was “major inhibition”.

In the case of `CC[C@@H]1C=C2COC1(O)C[C@H](O)[C@@H](C)[C@@H](/C(C)=C/[C@@H]1CC[C@@H](O)[C@H](OC)C1)OC(=O)[C@@H]1CCCCN1C(=O)C(=O)[C@]1(O)O[C@H]([C@@H](OC)C[C@@H](C)C2)[C@@H](OC)C[C@H]1C` [Compound II], the IC50 [1, 6] is reported as about 6 nM and the “Inhibition of T-cell activation (result in words)” value [1] is reported as “positive inhibition of T-cell activation; also recorded: positive results”.

With `N.N.O=S(=O)(O)O` [ammonium sulfate] the “Inhibition of DIMT activity” value ([2]; crude extract) was “inhibited”.

For `O=C(O)CN(CCN(CC(=O)O)CC(=O)O)CC(=O)O` [EDTA], the “Inhibition of DIMT activity” value [2] was “major inhibition” and the “Inhibition of DIMT activity” value ([2]; crude extract) was “completely inhibited”.

B1: 31-O-desmethylimmunomycin O-methyltransferase (DIMT) (Streptomyces hygroscopicus subsp. ascomyceticus) (protein)
chain: T1 sequence (Q9KID5 1-260)
For B1, the Km [4] was 11 µM, the Km [5] was 12.5 µM and the Vmax [5] was 100 nmol/h/mg.
